Results published in PubChem BioAssay (NCI).
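Five concentrations, 48 hours, 96-well plates. GI50 is the concentration that inhibits growth by half. TGI marks complete inhibition of growth.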

Key:
Experiment in all cases: DTP human tumour cell line panel, 48 h
786-0 renal = test system: 786-0 renal
A498 renal = test system: A498 renal
A549 NSCLC = test system: A549 NSCLC
ACHN renal = test system: ACHN renal
BT-549 breast = test system: BT-549 breast
CAKI-1 renal = test system: CAKI-1 renal
CCRF-CEM leukemia = test system: CCRF-CEM leukemia
COLO 205 colon = test system: COLO 205 colon
DU-145 prostate = test system: DU-145 prostate
EKVX NSCLC = test system: EKVX NSCLC
HCC-2998 colon = test system: HCC-2998 colon
HCT-116 colon = test system: HCT-116 colon
HCT-15 colon = test system: HCT-15 colon
HL-60(TB) leukemia = test system: HL-60(TB) leukemia
HOP-62 NSCLC = test system: HOP-62 NSCLC
HOP-92 NSCLC = test system: HOP-92 NSCLC
HS 578T breast = test system: HS 578T breast
HT29 colon = test system: HT29 colon
IGROV1 ovarian = test system: IGROV1 ovarian
K-562 leukemia = test system: K-562 leukemia
KM12 colon = test system: KM12 colon
LOX IMVI melanoma = test system: LOX IMVI melanoma
M14 melanoma = test system: M14 melanoma
MALME-3M melanoma = test system: MALME-3M melanoma
MCF7 breast = test system: MCF7 breast
MDA-MB-231 breast = test system: MDA-MB-231 breast
MDA-MB-435 = test system: MDA-MB-435
MOLT-4 leukemia = test system: MOLT-4 leukemia
NCI-H226 lung = test system: NCI-H226 lung
NCI-H23 lung = test system: NCI-H23 lung
NCI-H460 lung = test system: NCI-H460 lung
NCI-H522 lung = test system: NCI-H522 lung
NCI/ADR-RES ovarian = test system: NCI/ADR-RES ovarian
OVCAR-3 ovarian = test system: OVCAR-3 ovarian
OVCAR-4 ovarian = test system: OVCAR-4 ovarian
OVCAR-5 ovarian = test system: OVCAR-5 ovarian
OVCAR-8 ovarian = test system: OVCAR-8 ovarian
PC-3 prostate = test system: PC-3 prostate
RPMI-8226 leukemia = test system: RPMI-8226 leukemia
RXF 393 renal = test system: RXF 393 renal
SF-268 CNS = test system: SF-268 CNS
SF-295 CNS = test system: SF-295 CNS
SF-539 CNS = test system: SF-539 CNS
SK-MEL-2 melanoma = test system: SK-MEL-2 melanoma
SK-MEL-28 melanoma = test system: SK-MEL-28 melanoma
SK-MEL-5 melanoma = test system: SK-MEL-5 melanoma
SK-OV-3 ovarian = test system: SK-OV-3 ovarian
SN12C renal = test system: SN12C renal
SNB-19 CNS = test system: SNB-19 CNS
SNB-75 CNS = test system: SNB-75 CNS
SR leukemia = test system: SR leukemia
SW-620 colon = test system: SW-620 colon
T-47D breast = test system: T-47D breast
TK-10 renal = test system: TK-10 renal
U251 CNS = test system: U251 CNS
UACC-257 melanoma = test system: UACC-257 melanoma
UACC-62 melanoma = test system: UACC-62 melanoma
UO-31 renal = test system: UO-31 renal

Which GI50 (786-0 renal) does the source give for Cc1c(NC(=O)c2cc(C(N)=O)nc3cc(F)ccc23)c(C(F)(F)F)nn1Cc1ccc(C#N)cc1 here?
The GI50 was 3.77 µM.

What about the TGI (786-0 renal) of the same compound?
Its TGI is over 100 µM.

And the GI50 (A498 renal)?
Its GI50 is 15.1 µM.

And the TGI (A498 renal)?
The TGI was 62.4 µM.

And the GI50 (A549 NSCLC)?
Its GI50 is 16.6 µM.

And the TGI (A549 NSCLC)?
Its TGI is over 100 µM.

And the GI50 (ACHN renal)?
Its GI50 is 12.4 µM.

What about the TGI (ACHN renal) of the same compound?
The TGI was 71.1 µM.

What about the GI50 (BT-549 breast) of the same compound?
The GI50 was 1.78 µM.

And the TGI (BT-549 breast)?
The TGI was 25.3 µM.

And the GI50 (CAKI-1 renal)?
The GI50 was 5.66 µM.

What about the TGI (CAKI-1 renal) of the same compound?
The TGI was 35.1 µM.

What about the GI50 (CCRF-CEM leukemia) of the same compound?
The GI50 was 0.167 µM.

What about the TGI (CCRF-CEM leukemia) of the same compound?
The TGI was over 100 µM.

And the GI50 (COLO 205 colon)?
The GI50 was 0.504 µM.

What about the TGI (COLO 205 colon) of the same compound?
The TGI was 3.23 µM.

What about the GI50 (DU-145 prostate) of the same compound?
The GI50 was 1.1 µM.

And the TGI (DU-145 prostate)?
The TGI was over 56.4 µM.

And the GI50 (EKVX NSCLC)?
The GI50 was 21.9 µM.

What about the TGI (EKVX NSCLC) of the same compound?
The TGI was over 100 µM.

What about the GI50 (HCC-2998 colon) of the same compound?
Its GI50 is 5.16 µM.

What about the TGI (HCC-2998 colon) of the same compound?
The TGI was over 100 µM.

And the GI50 (HCT-116 colon)?
The GI50 was 2.84 µM.

What about the TGI (HCT-116 colon) of the same compound?
The TGI was over 100 µM.

What about the GI50 (HCT-15 colon) of the same compound?
Its GI50 is 23 µM.

What about the TGI (HCT-15 colon) of the same compound?
The TGI was over 100 µM.

And the GI50 (HL-60(TB) leukemia)?
The GI50 was 29.8 µM.

And the TGI (HL-60(TB) leukemia)?
Its TGI is over 100 µM.

What about the GI50 (HOP-62 NSCLC) of the same compound?
The GI50 was 13.6 µM.

And the TGI (HOP-62 NSCLC)?
Its TGI is over 87.3 µM.

And the GI50 (HOP-92 NSCLC)?
Its GI50 is 1.28 µM.

What about the TGI (HOP-92 NSCLC) of the same compound?
The TGI was 18.1 µM.

What about the GI50 (HS 578T breast) of the same compound?
Its GI50 is 0.0592 µM.

And the TGI (HS 578T breast)?
The TGI was 8.46 µM.

And the GI50 (HT29 colon)?
Its GI50 is 0.219 µM.

What about the TGI (HT29 colon) of the same compound?
The TGI was 1.91 µM.

And the GI50 (IGROV1 ovarian)?
The GI50 was 2.02 µM.

What about the TGI (IGROV1 ovarian) of the same compound?
Its TGI is over 80.7 µM.

And the GI50 (K-562 leukemia)?
The GI50 was 13.1 µM.

What about the TGI (K-562 leukemia) of the same compound?
The TGI was over 100 µM.

What about the GI50 (KM12 colon) of the same compound?
The GI50 was 0.512 µM.

And the TGI (KM12 colon)?
The TGI was over 37.9 µM.

What about the GI50 (LOX IMVI melanoma) of the same compound?
Its GI50 is 8.13 µM.

What about the TGI (LOX IMVI melanoma) of the same compound?
Its TGI is over 100 µM.

What about the GI50 (M14 melanoma) of the same compound?
Its GI50 is 58.8 µM.

And the TGI (M14 melanoma)?
Its TGI is over 100 µM.

And the GI50 (MALME-3M melanoma)?
Its GI50 is 14.4 µM.

And the TGI (MALME-3M melanoma)?
Its TGI is 74.5 µM.

And the GI50 (MCF7 breast)?
The GI50 was 0.276 µM.

What about the TGI (MCF7 breast) of the same compound?
Its TGI is 17.7 µM.

What about the GI50 (MDA-MB-231 breast) of the same compound?
The GI50 was 17.8 µM.

And the TGI (MDA-MB-231 breast)?
The TGI was over 100 µM.

And the GI50 (MDA-MB-435)?
The GI50 was 56.9 µM.

What about the TGI (MDA-MB-435) of the same compound?
Its TGI is over 100 µM.

What about the GI50 (MOLT-4 leukemia) of the same compound?
Its GI50 is 1.7 µM.

What about the TGI (MOLT-4 leukemia) of the same compound?
Its TGI is over 100 µM.

And the GI50 (NCI-H226 lung)?
The GI50 was 13.4 µM.

And the TGI (NCI-H226 lung)?
Its TGI is over 100 µM.

What about the GI50 (NCI-H23 lung) of the same compound?
The GI50 was 22.2 µM.

And the TGI (NCI-H23 lung)?
Its TGI is over 100 µM.

And the GI50 (NCI-H460 lung)?
The GI50 was 4.76 µM.

And the TGI (NCI-H460 lung)?
The TGI was over 100 µM.

And the GI50 (NCI-H522 lung)?
Its GI50 is 18.3 µM.

What about the TGI (NCI-H522 lung) of the same compound?
Its TGI is over 64.4 µM.

And the GI50 (NCI/ADR-RES ovarian)?
Its GI50 is 12.3 µM.

What about the TGI (NCI/ADR-RES ovarian) of the same compound?
The TGI was over 100 µM.

What about the GI50 (OVCAR-3 ovarian) of the same compound?
Its GI50 is 2.4 µM.

And the TGI (OVCAR-3 ovarian)?
Its TGI is over 64.5 µM.

And the GI50 (OVCAR-4 ovarian)?
The GI50 was 4.91 µM.

And the TGI (OVCAR-4 ovarian)?
The TGI was over 76.9 µM.

What about the GI50 (OVCAR-5 ovarian) of the same compound?
The GI50 was 8.61 µM.

And the TGI (OVCAR-5 ovarian)?
The TGI was 97.5 µM.

What about the GI50 (OVCAR-8 ovarian) of the same compound?
Its GI50 is 7.02 µM.

And the TGI (OVCAR-8 ovarian)?
The TGI was over 100 µM.

What about the GI50 (PC-3 prostate) of the same compound?
The GI50 was 0.451 µM.

And the TGI (PC-3 prostate)?
The TGI was 24.4 µM.

What about the GI50 (RPMI-8226 leukemia) of the same compound?
Its GI50 is 0.0101 µM.

What about the TGI (RPMI-8226 leukemia) of the same compound?
The TGI was 3.67 µM.

What about the GI50 (RXF 393 renal) of the same compound?
Its GI50 is 5.56 µM.

And the TGI (RXF 393 renal)?
The TGI was 28.8 µM.

What about the GI50 (SF-268 CNS) of the same compound?
The GI50 was 14.3 µM.

What about the TGI (SF-268 CNS) of the same compound?
Its TGI is over 69.3 µM.

What about the GI50 (SF-295 CNS) of the same compound?
Its GI50 is 10.4 µM.

What about the TGI (SF-295 CNS) of the same compound?
The TGI was 54.9 µM.

What about the GI50 (SF-539 CNS) of the same compound?
Its GI50 is 14.3 µM.

And the TGI (SF-539 CNS)?
The TGI was 49.6 µM.

What about the GI50 (SK-MEL-2 melanoma) of the same compound?
Its GI50 is 19.2 µM.

And the TGI (SK-MEL-2 melanoma)?
Its TGI is over 83.7 µM.

What about the GI50 (SK-MEL-28 melanoma) of the same compound?
The GI50 was 37.4 µM.

And the TGI (SK-MEL-28 melanoma)?
Its TGI is over 100 µM.

What about the GI50 (SK-MEL-5 melanoma) of the same compound?
The GI50 was 16.3 µM.

What about the TGI (SK-MEL-5 melanoma) of the same compound?
Its TGI is over 100 µM.

What about the GI50 (SK-OV-3 ovarian) of the same compound?
The GI50 was 2.76 µM.

And the TGI (SK-OV-3 ovarian)?
The TGI was 21.4 µM.

And the GI50 (SN12C renal)?
Its GI50 is 1.59 µM.

And the TGI (SN12C renal)?
The TGI was over 72 µM.

And the GI50 (SNB-19 CNS)?
Its GI50 is 3.44 µM.

And the TGI (SNB-19 CNS)?
Its TGI is 30 µM.

And the GI50 (SNB-75 CNS)?
Its GI50 is 5.8 µM.

And the TGI (SNB-75 CNS)?
Its TGI is 45.2 µM.

What about the GI50 (SR leukemia) of the same compound?
Its GI50 is 48.8 µM.

What about the TGI (SR leukemia) of the same compound?
Its TGI is over 100 µM.

What about the GI50 (SW-620 colon) of the same compound?
Its GI50 is 23.8 µM.

And the TGI (SW-620 colon)?
The TGI was over 100 µM.

And the GI50 (T-47D breast)?
Its GI50 is 0.295 µM.

And the TGI (T-47D breast)?
Its TGI is 31.3 µM.

And the GI50 (TK-10 renal)?
Its GI50 is 3.2 µM.

What about the TGI (TK-10 renal) of the same compound?
The TGI was over 53.6 µM.

And the GI50 (U251 CNS)?
Its GI50 is 1.67 µM.

And the TGI (U251 CNS)?
The TGI was 18.9 µM.

What about the GI50 (UACC-257 melanoma) of the same compound?
The GI50 was over 95.3 µM.

What about the TGI (UACC-257 melanoma) of the same compound?
Its TGI is over 100 µM.

And the GI50 (UACC-62 melanoma)?
Its GI50 is 6.35 µM.

What about the TGI (UACC-62 melanoma) of the same compound?
Its TGI is over 100 µM.

And the GI50 (UO-31 renal)?
Its GI50 is 1.78 µM.

What about the TGI (UO-31 renal) of the same compound?
The TGI was over 100 µM.
